Source: US5593984A, “Cephalosporin derivatives” (Yuhan Corporation, priority 1992, dated 1997)
≈ marks a conversion by molar mass, not a printed value.

Key:
Type in all cases: cell-based
B. subtilis ATCC 6633 = experiment: MIC by agar dilution, B. subtilis ATCC 6633; conditions: Bacillus subtilis, ATCC6633, 17 h; B. subtilis ATCC 6633; agar dilution, Mueller-Hinton agar; read-out: Minimal Inhibitory Concentration (MIC)
In short: (§1)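 MIC is the endpoint, obtained by agar dilution after 17±1 hours at 35°-37° C. on Mueller-Hinton agar containing doubling compound concentrations; strains inoculated at 10^6 CFU per ml.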

Staph. aureus ATCC 6538P = experiment: MIC by agar dilution, Staph. aureus ATCC 6538P; conditions: Staphylococcus aureus, ATCC6538P, 17 h; Staph. aureus ATCC 6538P; agar dilution, Mueller-Hinton agar; read-out: Minimal Inhibitory Concentration (MIC)
In short: as §1

Staph. aureus Smith = experiment: MIC by agar dilution, Staph. aureus Smith; conditions: Staphylococcus aureus, 17 h, Mueller-Hinton agar, read-out: Minimal Inhibitory Concentration (MIC)
In short: as §1

Staph. aureus C-57 = experiment: MIC by agar dilution, Staph. aureus C-57; conditions: Staphylococcus aureus, C57, 17 h, Mueller-Hinton agar, read-out: Minimal Inhibitory Concentration (MIC)
In short: as §1

Staph. aureus C-5113 = experiment: MIC by agar dilution, Staph. aureus C-5113; conditions: Staphylococcus aureus, C5113, 17 h, Mueller-Hinton agar, read-out: Minimal Inhibitory Concentration (MIC)
In short: as §1

Staph. aureus C-5216 = experiment: MIC by agar dilution, Staph. aureus C-5216; conditions: Staphylococcus aureus, C5216, 17 h, Mueller-Hinton agar, read-out: Minimal Inhibitory Concentration (MIC)
In short: as §1

[1] = test system: S. epidermidis ATCC 12228; experiment: MIC by agar dilution, S. epidermidis ATCC 12228; conditions: Staphylococcus epidermidis, ATCC12228, 17 h; S. epidermidis ATCC 12228; agar dilution, Mueller-Hinton agar; read-out: Minimal Inhibitory Concentration (MIC)
In short: as §1

Ent. aerogenes IFO 12979 = experiment: MIC by agar dilution, Ent. aerogenes IFO 12979; conditions: Klebsiella aerogenes, IFO12979, 17 h, Mueller-Hinton agar, read-out: Minimal Inhibitory Concentration (MIC)
In short: as §1

Ent. cloacae IFO 13535 = experiment: MIC by agar dilution, Ent. cloacae IFO 13535; conditions: Enterobacter cloacae, IFO13535, 17 h; Ent. cloacae IFO 13535; agar dilution, Mueller-Hinton agar; read-out: Minimal Inhibitory Concentration (MIC)
In short: as §1

E. coli NIHJ JC-2 = experiment: MIC by agar dilution, E. coli NIHJ JC-2; conditions: Escherichia coli, NIHJJC2, 17 h; E. coli NIHJ JC-2; agar dilution, Mueller-Hinton agar; read-out: Minimal Inhibitory Concentration (MIC)
In short: as §1

E. coli No. 29 = experiment: MIC by agar dilution, E. coli No. 29; conditions: Escherichia coli, 17 h; E. coli No. 29; agar dilution, Mueller-Hinton agar; read-out: Minimal Inhibitory Concentration (MIC)
In short: as §1

E. coli DY-1 = experiment: MIC by agar dilution, E. coli DY-1; conditions: Escherichia coli, DY1, 17 h; E. coli DY-1; agar dilution, Mueller-Hinton agar; read-out: Minimal Inhibitory Concentration (MIC)
In short: as §1

K. pneumoniae NCTC 9632 = experiment: MIC by agar dilution, K. pneumoniae NCTC 9632; conditions: Klebsiella pneumoniae, NCTC9632, 17 h; K. pneumoniae NCTC 9632; agar dilution, Mueller-Hinton agar; read-out: Minimal Inhibitory Concentration (MIC)
In short: as §1

M. morganii DY-1 = experiment: MIC by agar dilution, M. morganii DY-1; conditions: Morganella morganii, DY1, 17 h; M. morganii DY-1; agar dilution, Mueller-Hinton agar; read-out: Minimal Inhibitory Concentration (MIC)
In short: as §1

[2] = test system: Ps. aeruginosa ATCC 10145; experiment: MIC by agar dilution, Ps. aeruginosa ATCC 10145; conditions: Pseudomonas aeruginosa, ATCC10145, 17 h, Mueller-Hinton agar, read-out: Minimal Inhibitory Concentration (MIC)
In short: as §1

[3] = test system: Ps. aeruginosa NCTC 10490; experiment: MIC by agar dilution, Ps. aeruginosa NCTC 10490; conditions: Pseudomonas aeruginosa, NCTC10490, 17 h, Mueller-Hinton agar, read-out: Minimal Inhibitory Concentration (MIC)
In short: as §1

Ps. aeruginosa DY-2 = experiment: MIC by agar dilution, Ps. aeruginosa DY-2; conditions: Pseudomonas aeruginosa, DY2, 17 h; Ps. aeruginosa DY-2; agar dilution, Mueller-Hinton agar; read-out: Minimal Inhibitory Concentration (MIC)
In short: as §1

P. vulgaris NCTC 8313 = experiment: MIC by agar dilution, P. vulgaris NCTC 8313; conditions: Proteus vulgaris, NCTC8313, 17 h; P. vulgaris NCTC 8313; agar dilution, Mueller-Hinton agar; read-out: Minimal Inhibitory Concentration (MIC)
In short: as §1

Prov. stuartii IFO 12930 = experiment: MIC by agar dilution, Prov. stuartii IFO 12930; conditions: Providencia stuartii, IFO12930, 17 h, Mueller-Hinton agar, read-out: Minimal Inhibitory Concentration (MIC)
In short: as §1

[4] = test system: Ser. marcescens IFO 12648; experiment: MIC by agar dilution, Ser. marcescens IFO 12648; conditions: Serratia marcescens, IFO12648, 17 h; Ser. marcescens IFO 12648; agar dilution, Mueller-Hinton agar; read-out: Minimal Inhibitory Concentration (MIC)
In short: as §1

| MIC (B. subtilis ATCC 6633) [µg/mL] | MIC (Staph. aureus ATCC 6538P) [µg/mL] | MIC (Staph. aureus Smith) [µg/mL] | MIC (Staph. aureus C-57) [µg/mL] | MIC (Staph. aureus C-5113) [µg/mL] | MIC (Staph. aureus C-5216) [µg/mL] | MIC [1] [µg/mL] | MIC (Ent. aerogenes IFO 12979) [µg/mL] | MIC (Ent. cloacae IFO 13535) [µg/mL] | MIC (E. coli NIHJ JC-2) [µg/mL] | MIC (E. coli No. 29) [µg/mL] | MIC (E. coli DY-1) [µg/mL] | MIC (K. pneumoniae NCTC 9632) [µg/mL] | MIC (M. morganii DY-1) [µg/mL] | MIC [2] [µg/mL] | MIC [3] [µg/mL] | MIC (Ps. aeruginosa DY-2) [µg/mL] | MIC (P. vulgaris NCTC 8313) [µg/mL] | MIC (Prov. stuartii IFO 12930) [µg/mL] | MIC [4] [µg/mL] | SMILES |
| --- | --- | --- | --- | --- | --- | --- | --- | --- | --- | --- | --- | --- | --- | --- | --- | --- | --- | --- | --- | --- |
| 0.1 (≈ 0.19 µM) | 0.05 (≈ 0.0948 µM) | 0.2 (≈ 0.379 µM) | 12.5 (≈ 23.7 µM) | 0.78 (≈ 1.48 µM) | 0.78 (≈ 1.48 µM) | 0.05 (≈ 0.0948 µM) | 0.012 (≈ 0.0227 µM) | 0.025 (≈ 0.0474 µM) | 0.012 (≈ 0.0227 µM) | ≤ 0.006 | ≤ 0.006 | ≤ 0.006 | 0.012 (≈ 0.0227 µM) | 0.78 (≈ 1.48 µM) | 0.39 (≈ 0.739 µM) | 3.13 (≈ 5.93 µM) | 0.012 (≈ 0.0227 µM) | ≤ 0.006 | 0.012 (≈ 0.0227 µM) | CO/N=C(\C(=O)N[C@@H]1C(=O)N2C(C(=O)[O-])=C(C[n+]3ccn4cccc4c3C)CS[C@H]12)c1csc(N)n1 [Ex. 40, 7-β-[(Z)-2-(2-aminothiazol-4-yl)-2-methoxylminoacetamido]-3-(1-methylpyrrolo[1,2-a]pyrazinium-2-yl)methyl-3-cephem-4-carboxylate] |
| 0.39 (≈ 0.72 µM) | 0.78 (≈ 1.44 µM) | 3.13 (≈ 5.78 µM) | 25 (≈ 46.2 µM) | 3.13 (≈ 5.78 µM) | 1.56 (≈ 2.88 µM) | 0.1 (≈ 0.185 µM) | 0.025 (≈ 0.0462 µM) | 0.78 (≈ 1.44 µM) | 0.025 (≈ 0.0462 µM) | 0.05 (≈ 0.0923 µM) | 0.05 (≈ 0.0923 µM) | 0.05 (≈ 0.0923 µM) | 0.05 (≈ 0.0923 µM) | 3.13 (≈ 5.78 µM) | 0.39 (≈ 0.72 µM) | 12.5 (≈ 23.1 µM) | 0.05 (≈ 0.0923 µM) | 0.012 (≈ 0.0222 µM) | 0.05 (≈ 0.0923 µM) | CON=C(C(=O)NC1C(=O)N2C(C(=O)[O-])=C(C[n+]3ccn4c(C=O)ccc4c3)CSC12)c1csc(N)n1 (stereo not drawn) [Ex. 25, 7-β-[(Z)-2-(2-aminothiazol-4-yl)-2-methoxyiminoacetamido]-3-(6-formylpyrrolo[1,2-a]pyrazinium-2-yl)methyl-3-cephem-4-carboxylate] |
| 0.1 (≈ 0.184 µM) | 0.2 (≈ 0.368 µM) | 0.78 (≈ 1.43 µM) | 50 (≈ 92 µM) | 3.13 (≈ 5.76 µM) | 0.78 (≈ 1.43 µM) | 0.2 (≈ 0.368 µM) | ≤ 0.006 | 0.1 (≈ 0.184 µM) | 0.012 (≈ 0.0221 µM) | ≤ 0.006 | ≤ 0.006 | 0.012 (≈ 0.0221 µM) | 0.012 (≈ 0.0221 µM) | 0.39 (≈ 0.717 µM) | 0.1 (≈ 0.184 µM) | 6.25 (≈ 11.5 µM) | ≤ 0.006 | ≤ 0.006 | 0.012 (≈ 0.0221 µM) | CON=C(C(=O)NC1C(=O)N2C(C(=O)[O-])=C(C[n+]3ccn4c(CO)ccc4c3)CSC12)c1csc(N)n1 (stereo not drawn) [Ex. 21, 7-β-[(Z)-2-(2-aminothiazol-4-yl)-2-methoxyiminoacetamido]-3-(6-hydroxymethylpyrrolo[1,2-a]pyrazinium-2-yl)methyl-3-cephem-4-carboxylate] |
| 0.1 (≈ 0.166 µM) | 0.2 (≈ 0.332 µM) | 0.78 (≈ 1.29 µM) | 50 (≈ 83 µM) | 0.78 (≈ 1.29 µM) | 0.78 (≈ 1.29 µM) | 0.05 (≈ 0.083 µM) | 0.012 (≈ 0.0199 µM) | 0.2 (≈ 0.332 µM) | 0.025 (≈ 0.0415 µM) | 0.012 (≈ 0.0199 µM) | 0.012 (≈ 0.0199 µM) | 0.05 (≈ 0.083 µM) | 0.05 (≈ 0.083 µM) | 1.56 (≈ 2.59 µM) | 0.39 (≈ 0.647 µM) | 3.13 (≈ 5.19 µM) | 0.012 (≈ 0.0199 µM) | 0.012 (≈ 0.0199 µM) | 0.05 (≈ 0.083 µM) | CCON=C(C(=O)NC1C(=O)N2C(C(=O)[O-])=C(C[n+]3ccn4c(SCCN)ccc4c3)CSC12)c1csc(N)n1 (stereo not drawn) [Ex. 28, 7-β-[(Z)-2-(2-aminothiazol-4-yl)2-ethoxyiminoacetamido]-3-[6-(2-aminoethylthio)pyrrolo[1,2-a]pyrazinium-2-yl]methyl-3-cephem-4-carboxylate] |
